Test results as given in patent US8492374B2, “Azaazulene compounds” (Industrial Technology Research Institute, priority 2009, dated 2013).

Tests used:
Format in all cases: biochemical
FLT-3 kinase = molecular target: T1, FLT-3 kinase (Homo sapiens, UniProt P36888); experiment: FLT-3 kinase DELFIA assay (HTScan FLT-3 Kinase Assay Kit); details: 20 uM ATP
T1 construct: human FLT-3 (Arg571-Ser993); GST (N); purchased Cell Signaling Technology HTScan FLT-3 Kinase Assay Kit; host or cells: baculovirus expression system
T1 sequence (P36888 571-993): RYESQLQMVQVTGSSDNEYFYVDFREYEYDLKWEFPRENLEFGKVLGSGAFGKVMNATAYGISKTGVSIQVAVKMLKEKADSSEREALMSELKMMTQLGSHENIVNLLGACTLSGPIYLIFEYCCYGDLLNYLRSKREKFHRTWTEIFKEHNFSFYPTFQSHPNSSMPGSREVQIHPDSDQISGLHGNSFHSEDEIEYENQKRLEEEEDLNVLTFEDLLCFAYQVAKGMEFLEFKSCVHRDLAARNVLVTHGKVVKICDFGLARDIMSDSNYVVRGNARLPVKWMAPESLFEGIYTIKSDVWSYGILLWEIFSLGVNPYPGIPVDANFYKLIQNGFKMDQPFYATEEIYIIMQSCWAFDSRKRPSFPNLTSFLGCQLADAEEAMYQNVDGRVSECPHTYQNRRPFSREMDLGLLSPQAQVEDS

AMPK A1/B1/G1 = AMPK A1/B1/G1 (Homo sapiens, UniProt Q13131); experiment: Kinase panel assay (SelectScreen Kinase Profiling, Invitrogen); details: 1000 nM of compound B26
Procedure: (§1) The kinase panel assay of compound B26 of this invention was performed by SelectScreen® Kinase Profiling Services of Invitrogen. The inhibitory effects of 1000 nM of compound B26 against various kinases whom shown >50% inhibitory effects are summarized in following Table 5.

AMPK A2/B1/G1 = AMPK A2/B1/G1 (Homo sapiens, UniProt P54646); experiment: as above; details: 1000 nM of compound B26
Procedure: as §1

FGR = FGR (Homo sapiens, UniProt P09769); experiment: as above; details: 1000 nM of compound B26
Procedure: as §1

FLT4 (VEGFR3) = FLT4 (VEGFR3) (Homo sapiens, UniProt P35916); experiment: as above; details: 1000 nM of compound B26
Procedure: as §1

KIT = KIT (Homo sapiens, UniProt P10721); experiment: as above; details: 1000 nM of compound B26
Procedure: as §1

LCK = LCK (Homo sapiens, UniProt P06239); experiment: as above; details: 1000 nM of compound B26
Procedure: as §1

PHKG1 = PHKG1 (Homo sapiens, UniProt Q16816); experiment: as above; details: 1000 nM of compound B26
Procedure: as §1

RET Y791F = RET Y791F (Homo sapiens, UniProt P07949, Y791F); experiment: as above; details: 1000 nM of compound B26
Procedure: as §1

LCK, sequence (P06239 whole entry): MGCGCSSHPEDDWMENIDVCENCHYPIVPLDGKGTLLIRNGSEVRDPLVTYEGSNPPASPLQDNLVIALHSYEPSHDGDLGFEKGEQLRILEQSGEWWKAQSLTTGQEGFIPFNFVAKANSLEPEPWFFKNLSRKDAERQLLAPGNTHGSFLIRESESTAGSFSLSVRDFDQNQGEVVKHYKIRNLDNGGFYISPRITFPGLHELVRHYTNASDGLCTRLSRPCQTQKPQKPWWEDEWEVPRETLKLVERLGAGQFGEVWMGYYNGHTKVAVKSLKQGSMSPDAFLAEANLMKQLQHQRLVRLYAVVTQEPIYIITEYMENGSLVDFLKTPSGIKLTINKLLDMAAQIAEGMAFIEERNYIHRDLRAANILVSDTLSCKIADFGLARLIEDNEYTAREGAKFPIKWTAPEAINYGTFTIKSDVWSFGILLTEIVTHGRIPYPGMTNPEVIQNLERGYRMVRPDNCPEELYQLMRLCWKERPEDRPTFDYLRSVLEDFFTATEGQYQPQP
AMPK A2/B1/G1, sequence (P54646 whole entry): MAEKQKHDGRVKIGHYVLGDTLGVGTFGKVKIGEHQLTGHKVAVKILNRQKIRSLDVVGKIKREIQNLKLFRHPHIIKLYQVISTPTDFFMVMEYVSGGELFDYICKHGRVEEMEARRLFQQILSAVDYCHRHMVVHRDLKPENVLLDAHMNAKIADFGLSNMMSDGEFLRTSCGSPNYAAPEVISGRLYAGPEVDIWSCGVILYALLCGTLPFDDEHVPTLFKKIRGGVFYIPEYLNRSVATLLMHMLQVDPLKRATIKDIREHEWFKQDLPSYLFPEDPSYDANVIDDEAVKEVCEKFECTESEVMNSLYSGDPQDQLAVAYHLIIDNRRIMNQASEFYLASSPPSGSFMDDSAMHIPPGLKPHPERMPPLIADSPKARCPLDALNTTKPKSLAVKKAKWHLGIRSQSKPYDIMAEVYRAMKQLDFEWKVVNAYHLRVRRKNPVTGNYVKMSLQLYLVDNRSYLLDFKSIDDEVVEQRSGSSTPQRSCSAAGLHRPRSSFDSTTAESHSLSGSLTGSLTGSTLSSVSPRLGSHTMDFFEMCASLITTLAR
AMPK A2/B1/G1, sequence (Q9Y478 whole entry partner): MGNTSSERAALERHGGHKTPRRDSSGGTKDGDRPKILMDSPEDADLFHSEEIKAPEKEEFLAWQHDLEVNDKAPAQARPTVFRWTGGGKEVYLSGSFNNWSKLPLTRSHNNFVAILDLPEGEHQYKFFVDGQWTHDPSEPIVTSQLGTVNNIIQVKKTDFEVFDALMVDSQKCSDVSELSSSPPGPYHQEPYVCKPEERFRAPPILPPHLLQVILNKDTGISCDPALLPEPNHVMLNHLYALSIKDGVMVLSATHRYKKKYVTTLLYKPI
AMPK A2/B1/G1, sequence (P54619 whole entry partner): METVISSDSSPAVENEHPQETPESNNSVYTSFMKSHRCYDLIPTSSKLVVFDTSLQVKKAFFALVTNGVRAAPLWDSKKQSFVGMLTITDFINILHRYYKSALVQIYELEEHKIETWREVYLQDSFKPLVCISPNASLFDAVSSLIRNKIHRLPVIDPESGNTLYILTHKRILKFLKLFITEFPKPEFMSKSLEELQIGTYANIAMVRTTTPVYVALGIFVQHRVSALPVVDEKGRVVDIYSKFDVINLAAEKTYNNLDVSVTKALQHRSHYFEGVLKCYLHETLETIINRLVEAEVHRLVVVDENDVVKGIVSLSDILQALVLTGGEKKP
FGR, sequence (P09769 whole entry): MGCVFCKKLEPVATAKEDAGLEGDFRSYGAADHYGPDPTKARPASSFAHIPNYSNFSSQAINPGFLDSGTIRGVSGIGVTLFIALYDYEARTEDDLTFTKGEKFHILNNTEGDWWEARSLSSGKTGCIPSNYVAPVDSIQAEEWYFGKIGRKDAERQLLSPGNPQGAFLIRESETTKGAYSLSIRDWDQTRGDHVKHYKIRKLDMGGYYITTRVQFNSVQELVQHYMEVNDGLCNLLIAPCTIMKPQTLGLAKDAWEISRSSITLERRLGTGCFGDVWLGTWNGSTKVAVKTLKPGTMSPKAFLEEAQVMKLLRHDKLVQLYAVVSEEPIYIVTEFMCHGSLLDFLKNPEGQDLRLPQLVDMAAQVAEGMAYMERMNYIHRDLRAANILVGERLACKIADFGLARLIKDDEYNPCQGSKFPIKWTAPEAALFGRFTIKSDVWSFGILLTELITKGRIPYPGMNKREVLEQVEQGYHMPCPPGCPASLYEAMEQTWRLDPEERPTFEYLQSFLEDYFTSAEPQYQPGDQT
KIT, sequence (P10721 26-976): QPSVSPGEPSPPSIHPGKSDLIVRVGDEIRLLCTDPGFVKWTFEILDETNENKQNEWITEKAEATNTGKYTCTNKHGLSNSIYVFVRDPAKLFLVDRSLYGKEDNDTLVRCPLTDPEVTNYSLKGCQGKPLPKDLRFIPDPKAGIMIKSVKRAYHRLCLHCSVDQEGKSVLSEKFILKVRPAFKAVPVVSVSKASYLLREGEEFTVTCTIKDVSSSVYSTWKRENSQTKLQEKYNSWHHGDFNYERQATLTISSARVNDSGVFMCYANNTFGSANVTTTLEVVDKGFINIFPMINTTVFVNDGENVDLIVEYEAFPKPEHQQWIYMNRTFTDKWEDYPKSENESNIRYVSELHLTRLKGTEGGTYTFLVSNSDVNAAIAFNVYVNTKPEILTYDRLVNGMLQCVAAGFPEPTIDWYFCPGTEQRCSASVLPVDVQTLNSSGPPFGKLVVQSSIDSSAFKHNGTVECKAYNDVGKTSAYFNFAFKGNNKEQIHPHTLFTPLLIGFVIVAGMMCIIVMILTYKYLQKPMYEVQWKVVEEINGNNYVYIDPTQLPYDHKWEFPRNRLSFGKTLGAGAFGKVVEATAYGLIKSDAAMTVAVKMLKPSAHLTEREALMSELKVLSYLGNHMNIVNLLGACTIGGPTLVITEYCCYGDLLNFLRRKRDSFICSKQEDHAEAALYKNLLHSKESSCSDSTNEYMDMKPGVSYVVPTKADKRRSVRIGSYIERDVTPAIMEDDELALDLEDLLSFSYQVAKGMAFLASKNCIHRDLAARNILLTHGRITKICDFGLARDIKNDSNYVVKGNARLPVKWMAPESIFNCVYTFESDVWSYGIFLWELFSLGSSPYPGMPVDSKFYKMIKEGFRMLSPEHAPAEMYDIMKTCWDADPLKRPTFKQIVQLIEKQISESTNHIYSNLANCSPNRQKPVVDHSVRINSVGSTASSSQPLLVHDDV
AMPK A1/B1/G1, sequence (Q13131 whole entry): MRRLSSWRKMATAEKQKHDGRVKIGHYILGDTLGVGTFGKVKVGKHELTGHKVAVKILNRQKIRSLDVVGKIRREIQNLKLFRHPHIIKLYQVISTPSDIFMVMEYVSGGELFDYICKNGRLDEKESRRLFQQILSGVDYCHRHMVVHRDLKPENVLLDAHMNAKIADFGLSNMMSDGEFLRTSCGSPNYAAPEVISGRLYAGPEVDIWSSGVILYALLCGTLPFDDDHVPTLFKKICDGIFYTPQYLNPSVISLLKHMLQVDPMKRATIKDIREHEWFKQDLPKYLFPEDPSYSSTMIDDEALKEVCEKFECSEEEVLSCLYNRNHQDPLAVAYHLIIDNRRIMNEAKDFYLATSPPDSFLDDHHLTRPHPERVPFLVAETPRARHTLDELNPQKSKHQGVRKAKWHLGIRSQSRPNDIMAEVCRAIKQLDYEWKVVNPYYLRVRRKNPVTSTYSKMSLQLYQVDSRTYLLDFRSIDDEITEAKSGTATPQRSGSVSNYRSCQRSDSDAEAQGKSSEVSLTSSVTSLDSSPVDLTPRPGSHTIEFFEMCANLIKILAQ
AMPK A1/B1/G1, sequence (Q9Y478 whole entry partner): as the sequence (Q9Y478 whole entry partner) above
AMPK A1/B1/G1, sequence (P54619 whole entry partner): as the sequence (P54619 whole entry partner) above
PHKG1, sequence (Q16816 whole entry): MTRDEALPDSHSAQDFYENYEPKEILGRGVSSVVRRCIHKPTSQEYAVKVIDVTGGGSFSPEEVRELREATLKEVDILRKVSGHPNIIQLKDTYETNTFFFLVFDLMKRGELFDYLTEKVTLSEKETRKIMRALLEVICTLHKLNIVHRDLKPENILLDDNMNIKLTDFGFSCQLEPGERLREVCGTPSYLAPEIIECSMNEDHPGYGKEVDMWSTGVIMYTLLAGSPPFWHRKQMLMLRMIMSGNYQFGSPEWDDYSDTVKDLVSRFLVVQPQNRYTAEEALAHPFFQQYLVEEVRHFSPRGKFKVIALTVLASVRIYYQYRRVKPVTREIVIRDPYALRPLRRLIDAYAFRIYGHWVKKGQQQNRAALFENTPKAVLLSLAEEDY

inhibition at 0.1 µM (FLT-3 kinase; 0.1 uM compound): 45.6%
inhibition at 1 µM (FLT-3 kinase; 1 uM compound): 91.2%
inhibition at 1 µM (AMPK A1/B1/G1): 88%
inhibition at 1 µM (AMPK A2/B1/G1): 70%
inhibition at 1 µM (FGR): 69%
inhibition at 1 µM (FLT4 (VEGFR3)): 50%
inhibition at 1 µM (KIT): 61%
inhibition at 1 µM (LCK): 63%
inhibition at 1 µM (PHKG1): 53%
inhibition at 1 µM (RET Y791F): 79%
SMILES: CN1CCN(c2ccc3[nH]c(-c4c5cccccc-5[nH]c4=O)nc3c2)CC1 [Compound B26]
